Laboratory results: ChEMBL document CHEMBL5346940, “Design, synthesis and biological evaluation of dual Topo II/HDAC inhibitors bearing pyrimido[5,4-b]indole and pyrazolo[3,4-d]pyrimidine motifs” (Eur J Med Chem, 2023)
Activity calls are given as the source filed them. The rule behind the calls is not given here.

How the values were obtained:
[1] = tested on: MGC-803; test: Antiproliferative activity against human MGC-803 cells assessed as reduction in cell viability measured for 48 hrs by MTT assay; type: functional, cell-based; settings: MGC-803, 48 h
[2] = tested on: U-937; test: Antiproliferative activity against human U-937 cells assessed as reduction in cell viability measured for 48 hrs by MTT assay; type: functional, cell-based; settings: U-937, 48 h
[3] = tested on: NIH3T3; test: Antiproliferative activity against mouse 3T3 cells assessed as reduction in cell viability at 100 uM measured for 48 hrs by MTT assay relative to control; type: toxicity, cell-based; settings: nih3t3, 48 h
[4] = target: T1, DNA topoisomerase 1 (Homo sapiens) (UniProt P11387); test: Inhibition of human topoisomerase 1 assessed as relaxation of pBR322 plasmid DNA at 100 uM measured after 30 mins by agarose gel electrophoresis analysis
T1 sequence (whole entry): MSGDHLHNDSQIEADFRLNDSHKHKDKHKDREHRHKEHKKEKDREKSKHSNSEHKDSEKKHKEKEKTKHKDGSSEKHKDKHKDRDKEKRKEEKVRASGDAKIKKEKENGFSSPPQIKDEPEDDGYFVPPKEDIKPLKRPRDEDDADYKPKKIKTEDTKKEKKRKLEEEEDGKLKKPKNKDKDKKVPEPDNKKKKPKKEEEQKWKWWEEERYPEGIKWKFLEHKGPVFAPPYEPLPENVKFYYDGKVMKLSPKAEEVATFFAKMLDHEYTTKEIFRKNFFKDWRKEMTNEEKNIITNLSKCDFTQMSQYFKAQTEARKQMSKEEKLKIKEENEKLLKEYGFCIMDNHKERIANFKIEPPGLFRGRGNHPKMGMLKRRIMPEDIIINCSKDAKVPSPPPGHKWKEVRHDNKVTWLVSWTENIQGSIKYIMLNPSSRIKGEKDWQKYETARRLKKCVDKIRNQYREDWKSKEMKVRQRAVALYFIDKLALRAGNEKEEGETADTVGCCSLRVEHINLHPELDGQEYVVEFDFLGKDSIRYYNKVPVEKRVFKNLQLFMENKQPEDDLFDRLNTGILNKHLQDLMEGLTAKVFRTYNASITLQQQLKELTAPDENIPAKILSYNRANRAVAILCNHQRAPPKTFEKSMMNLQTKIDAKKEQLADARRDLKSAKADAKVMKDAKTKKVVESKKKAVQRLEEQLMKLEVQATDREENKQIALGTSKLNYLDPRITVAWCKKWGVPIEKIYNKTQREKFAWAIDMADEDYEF

[5] = target: DNA topoisomerase 2-alpha (Homo sapiens) (UniProt P11388); test: Inhibition of human topoisomerase 2 assessed as relaxation of pBR322 plasmid DNA at 100 uM measured after 30 mins by ethidium bromide staining based UV transilluminator analysis
Chain of DNA topoisomerase 2-alpha (Homo sapiens) (P11388 whole entry): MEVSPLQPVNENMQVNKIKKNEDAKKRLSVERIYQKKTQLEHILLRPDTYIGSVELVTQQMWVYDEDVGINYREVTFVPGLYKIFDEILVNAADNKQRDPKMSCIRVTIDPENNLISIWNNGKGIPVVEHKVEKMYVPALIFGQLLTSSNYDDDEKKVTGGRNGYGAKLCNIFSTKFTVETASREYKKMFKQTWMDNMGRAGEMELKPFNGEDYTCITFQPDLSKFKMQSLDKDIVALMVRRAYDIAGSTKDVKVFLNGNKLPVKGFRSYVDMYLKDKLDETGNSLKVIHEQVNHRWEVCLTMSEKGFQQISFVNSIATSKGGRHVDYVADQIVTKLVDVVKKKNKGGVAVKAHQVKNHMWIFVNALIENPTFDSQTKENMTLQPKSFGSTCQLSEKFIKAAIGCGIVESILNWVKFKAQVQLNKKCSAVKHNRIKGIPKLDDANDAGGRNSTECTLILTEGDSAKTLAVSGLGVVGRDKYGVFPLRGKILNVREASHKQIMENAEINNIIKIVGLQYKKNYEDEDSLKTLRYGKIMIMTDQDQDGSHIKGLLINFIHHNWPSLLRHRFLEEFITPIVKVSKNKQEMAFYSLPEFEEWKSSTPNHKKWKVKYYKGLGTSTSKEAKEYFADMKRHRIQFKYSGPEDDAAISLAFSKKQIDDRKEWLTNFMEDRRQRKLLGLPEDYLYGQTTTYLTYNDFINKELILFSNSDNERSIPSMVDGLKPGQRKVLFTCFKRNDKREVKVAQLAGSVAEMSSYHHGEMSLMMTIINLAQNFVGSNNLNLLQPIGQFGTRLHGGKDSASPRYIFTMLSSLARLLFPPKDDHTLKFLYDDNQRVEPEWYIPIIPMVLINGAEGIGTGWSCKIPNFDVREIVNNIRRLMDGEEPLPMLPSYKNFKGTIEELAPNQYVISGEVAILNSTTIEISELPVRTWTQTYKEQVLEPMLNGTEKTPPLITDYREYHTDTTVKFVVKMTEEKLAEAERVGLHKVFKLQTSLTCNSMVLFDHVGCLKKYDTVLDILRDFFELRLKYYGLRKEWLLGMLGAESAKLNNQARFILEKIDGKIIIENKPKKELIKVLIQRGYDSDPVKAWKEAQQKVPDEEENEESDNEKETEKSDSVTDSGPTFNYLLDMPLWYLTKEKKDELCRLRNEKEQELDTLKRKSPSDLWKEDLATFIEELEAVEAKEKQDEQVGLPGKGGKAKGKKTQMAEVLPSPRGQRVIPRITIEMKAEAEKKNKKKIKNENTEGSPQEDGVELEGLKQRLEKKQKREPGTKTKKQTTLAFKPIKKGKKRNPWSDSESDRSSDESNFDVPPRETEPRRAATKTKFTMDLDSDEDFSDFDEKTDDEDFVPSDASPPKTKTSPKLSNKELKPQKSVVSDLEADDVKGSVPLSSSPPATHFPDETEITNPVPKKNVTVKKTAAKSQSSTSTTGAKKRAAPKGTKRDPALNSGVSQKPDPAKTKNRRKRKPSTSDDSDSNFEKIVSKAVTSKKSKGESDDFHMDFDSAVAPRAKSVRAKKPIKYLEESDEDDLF

[6] = target: DNA topoisomerase 2-alpha (Homo sapiens) (UniProt P11388); test: Poison activity at human topoisomerase 2 assessed as stabilization of enzyme-DNA cleavage complex by measuring linear DNA formation at 100 uM incubated for 6 mins by EtBr staining based UV light analysis
[7] = target: Histone deacetylase; test: Inhibition of HDAC in human HeLa nuclear extract measured after 30 mins by fluorescence based assay; type: cell-free
[8] = tested on: MCF7; test: Induction of apoptosis in human MCF7 cells assessed as cell shrinkage at 10 uM incubated for 48 hrs by AO/EB staining based fluorescence microscopic analysis; type: functional
[9] = tested on: MCF7; test: Induction of apoptosis in human MCF7 cells assessed as appearance of rounded cells at 10 uM incubated for 48 hrs by AO/EB staining based fluorescence microscopic analysis; type: functional, cell-based
[10] = tested on: MCF7; test: Induction of apoptosis in human MCF7 cells assessed as cell depletion at 10 uM incubated for 48 hrs by AO/EB staining based fluorescence microscopic analysis; type: functional
[11] = tested on: MCF7; test: Induction of apoptosis in human MCF7 cells assessed as viable cells at 10 uM incubated for 48 hrs by AnnexinV-FITC/propidium iodide staining based flow cytometry analysis (reference value: 99.2 %); type: functional; settings: read-out: Activity
[12] = tested on: MCF7; test: Induction of apoptosis in human MCF7 cells assessed as early apoptotic cells at 10 uM incubated for 48 hrs by AnnexinV-FITC/propidium iodide staining based flow cytometry analysis (reference value: 0.28 %); type: functional
[13] = tested on: MCF7; test: Induction of apoptosis in human MCF7 cells assessed as late apoptotic cells at 10 uM incubated for 48 hrs by AnnexinV-FITC/propidium iodide staining based flow cytometry analysis (reference value: 0.015 %); type: functional
[14] = tested on: MCF7; test: Induction of apoptosis in human MCF7 cells assessed as necrotic cells at 10 uM incubated for 48 hrs by AnnexinV-FITC/propidium iodide staining based flow cytometry analysis (reference value: 0.55 %); type: functional
[15] = tested on: MCF7; test: Induction of apoptosis in human MCF7 cells assessed as viable cells at 5 uM incubated for 48 hrs by AnnexinV-FITC/propidium iodide staining based flow cytometry analysis (reference value: 99.2 %); type: functional; settings: read-out: Activity
[16] = tested on: MCF7; test: Induction of apoptosis in human MCF7 cells assessed as early apoptotic cells at 5 uM incubated for 48 hrs by AnnexinV-FITC/propidium iodide staining based flow cytometry analysis (reference value: 0.28 %); type: functional
[17] = tested on: MCF7; test: Induction of apoptosis in human MCF7 cells assessed as late apoptotic cells at 5 uM incubated for 48 hrs by AnnexinV-FITC/propidium iodide staining based flow cytometry analysis (reference value: 0.015 %); type: functional
[18] = tested on: MCF7; test: Induction of apoptosis in human MCF7 cells assessed as necrotic cells at 5 uM incubated for 48 hrs by AnnexinV-FITC/propidium iodide staining based flow cytometry analysis (reference value: 0.55 %); type: functional
[19] = tested on: MCF7; test: Induction of apoptosis in human MCF7 cells assessed as viable cells at 20 uM incubated for 48 hrs by AnnexinV-FITC/propidium iodide staining based flow cytometry analysis (reference value: 99.2 %); type: functional; settings: read-out: Activity
[20] = tested on: MCF7; test: Induction of apoptosis in human MCF7 cells assessed as early apoptotic cells at 20 uM incubated for 48 hrs by AnnexinV-FITC/propidium iodide staining based flow cytometry analysis (reference value: 0.28 %); type: functional
[21] = tested on: MCF7; test: Induction of apoptosis in human MCF7 cells assessed as late apoptotic cells at 20 uM incubated for 48 hrs by AnnexinV-FITC/propidium iodide staining based flow cytometry analysis (reference value: 0.015 %); type: functional
[22] = tested on: MCF7; test: Induction of apoptosis in human MCF7 cells assessed as necrotic cells at 20 uM incubated for 48 hrs by AnnexinV-FITC/propidium iodide staining based flow cytometry analysis (reference value: 0.55 %); type: functional
[23] = tested on: MCF7; test: cells; type: functional; settings: Homo sapiens, time 48 hrs
Description: Inhibition of cell migration in human MCF7 cells assessed as reduction in cell migration at 1 uM measured for 48 hrs by wound healing assay based microscopic analysis (Rvb = 70.25%)

[24] = tested on: MCF7; test: cells; type: functional; settings: Homo sapiens, time 48 hrs; remark: listed apart in the source
Description: Inhibition of cell migration in human MCF7 cells assessed as reduction in cell migration at 2.5 uM measured for 48 hrs by wound healing assay based microscopic analysis (Rvb = 70.25%)

[25] = tested on: MCF7; test: Inhibition of cell migration in human MCF7 cells assessed as reduction in cell migration at 5 uM measured for 48 hrs by wound healing assay based microscopic analysis (reference value: 70.25%); type: functional
[26] = tested on: MCF7; test: Antiproliferative activity against human MCF7 cells assessed as reduction in cell viability measured for 48 hrs by MTT assay; type: functional, cell-based; settings: MCF7, 48 h

Structure (SMILES)	IC50 [1]	IC50 [2]	Activity [3]	inhibition (active/inactive call) [4]	topoisomerase II inhibition (active/inactive) [5]	IC50 [7]	Activity [8]	Activity [9]	Activity [10]	viability at 10 µM [11]	Activity [12]	Activity [13]	Activity [14]	viability at 5 µM [15]	Activity [16]	Activity [17]	Activity [18]	viability at 20 µM [19]	Activity [20]	Activity [21]	other results
O=C(CCCCSc1nc2c([nH]c3ccccc32)c(=O)[nH]1)NO	9.59 µM	28.5 µM	7.62%	Active	Active	4.67 µM	Active	Active	Active	60.6%	26.6%	12.1%	0.67%	83.4%	10.4%	5.88%	0.3%	45.5%	29%	24.9%	Activity [6]: Active; Activity [22]: 0.54%; inhibition at 1 µM [23]: 58.5%; inhibition at 2.5 µM [24]: 32.3%; inhibition at 5 µM [25]: 19.3%
CCn1c(SCCCCC(=O)NO)nc2c([nH]c3ccccc32)c1=O	12.3 µM	24.6 µM	38.7%	Active	Active	5.9 µM	Active	Active	Active	78.7%	14.1%	6.9%	0.3%	93.4%	4.86%	1.16%	0.6%	53.7%	28.8%	17.1%	IC50 [26]: 18.3 µM; Activity [22]: 0.48%; inhibition at 1 µM [23]: 65.4%; inhibition at 2.5 µM [24]: 56.4%; inhibition at 5 µM [25]: 29.7%
